Experimental data: patent publication US20240025883A1, “PYRIMIDIN-2-YL SULFONAMIDE DERIVATIVES” (Hoffmann-La Roche Inc., priority 2021, published 2024)

Experiments:
[1] = microsomes, 1 µM
Experimental: (§1) Incubations at a test compound of 1 mM in microsomes (0.5 mg/mL) plus cofactor NADPH are performed in 96 well plates at 37° C. on a TECAN (Tecan Group Ltd, Switzerland) automated liquid handling system. The final concentration of the test compound in the incubation is 1 microM. After a 10 minutes preincubation step of the test compound with the microsomes, the enzymatic reaction is started by the addition of cofactors. At 1, 3, 6, 9, 15, 25, 35 and 45 minutes, aliquots of the incubations are removed and quenched with 1:3 (v/v) acetonitrile containing internal standards. Samples are then cooled and centrifuged before analysis of the supernatant by LC-MS/MS.

[2] = microsomes, 1 µM; remark: listed apart in the source
Experimental: as §1

[3] = microsomes, 1 µM; remark: listed apart in the source
Experimental: as §1

[4] = target: human GPR17 short isoform (Homo sapiens (Human), UniProt Q13304); assay: GPR17 cAMP assay (hGPR17 cAMP, antagonist mode against EC80 of MDL29,951); format: cell-based; conditions: CHO-K1 cells stably expressing human GPR17 short isoform; EC80 of agonist MDL29,951; forskolin 15 μM
Chain of human GPR17 short isoform (Q13304 29-367): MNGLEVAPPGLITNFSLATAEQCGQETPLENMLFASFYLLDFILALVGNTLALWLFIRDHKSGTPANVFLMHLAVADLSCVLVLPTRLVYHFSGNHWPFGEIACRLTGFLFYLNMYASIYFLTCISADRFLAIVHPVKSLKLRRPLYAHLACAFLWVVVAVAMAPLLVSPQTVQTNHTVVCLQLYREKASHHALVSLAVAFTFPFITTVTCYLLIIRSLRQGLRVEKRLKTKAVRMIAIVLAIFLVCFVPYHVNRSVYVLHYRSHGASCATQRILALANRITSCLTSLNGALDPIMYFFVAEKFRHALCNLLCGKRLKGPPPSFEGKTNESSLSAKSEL
How it was run: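 cAMP was read by competitive TR-FRET after a 30 min room-temperature stimulation: antagonists plus EC80 MDL29,951 and 0.5 mM IBMX, followed 5 min later by 15 μM forskolin. Cells were CHO-K1 with stable human GPR17 short isoform in HBSS/HEPES/BSA, pH 7.4; percent activity versus reference antagonist fitted sigmoidally.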

[5] = Microsome clearance assay, human; conditions: microsomes
Experimental: as §1

[6] = Microsome clearance assay, mouse; conditions: microsomes
Experimental: as §1

[7] = Microsome clearance assay, rat; conditions: microsomes
Experimental: as §1

Molecule | Microsomal Clearance mouse [1] [μL/min/mg protein] | Microsomal Clearance human [2] [μL/min/mg protein] | Microsomal Clearance rat [3] [μL/min/mg protein] | IC50 [4] [nM] | microsomal CLint at 1 µM [5] [µL/min/mg] | microsomal CLint at 1 µM [6] [µL/min/mg] | microsomal CLint at 1 µM [7] [µL/min/mg]
N-(4-bromo-2-fluoro-5-methoxy-phenyl)-6-chloro-1H-indole-3-sulfonamide [RE-F] | 129 | 29 | 166 |  |  |  | 
COc1nc(NS(=O)(=O)c2c[nH]c3cc(Cl)ccc23)ncc1CCC#N [Example 179, 6-chloro-N-[5-(2-cyanoethyl)-4-methoxy-pyrimidin-2-yl]-1H-indole-3-sulfonamide] |  |  |  | 31 | 10 | 10 | 33
COc1nc(NS(=O)(=O)c2c[nH]c3cc(Cl)ccc23)ncc1OCCF [Example 1, 6-chloro-N-[5-(2-fluoroethoxy)-4-methoxy-pyrimidin-2-yl]-1H-indole-3-sulfonamide] |  |  |  | 69 | 16 | 10 | 29
COc1nc(NS(=O)(=O)c2c[nH]c3cc(Cl)ccc23)ncc1Br [Example 22, N-(5-bromo-4-methoxy-pyrimidin-2-yl)-6-chloro-1H-indole-3-sulfonamide] |  |  |  | 515 | 10 | 10 | 10
